Reference: PMC4979471 (Cell Death Discovery, 2015)
Read-outs that look alike come from different tables or passages of the source.

Experiments:
Assay in all cases: Kinase selectivity, P33-radiolabeled assay
Type in all cases: biochemical
Settings in all cases: 10 μM ATP
PKCtheta = target: T1, PKCtheta (Homo sapiens, UniProt Q04759)
T1 construct: purchased Reaction Biology Corp
In short: (§1)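 Percent residual kinase activity versus DMSO is reported. Conditions: compound at 10 μM, ATP at 10 μM, n = 2.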

MARK3 = target: T2, MARK3 (Homo sapiens, UniProt P27448)
T2 construct: purchased Reaction Biology Corp
T2 sequence (P27448 whole entry): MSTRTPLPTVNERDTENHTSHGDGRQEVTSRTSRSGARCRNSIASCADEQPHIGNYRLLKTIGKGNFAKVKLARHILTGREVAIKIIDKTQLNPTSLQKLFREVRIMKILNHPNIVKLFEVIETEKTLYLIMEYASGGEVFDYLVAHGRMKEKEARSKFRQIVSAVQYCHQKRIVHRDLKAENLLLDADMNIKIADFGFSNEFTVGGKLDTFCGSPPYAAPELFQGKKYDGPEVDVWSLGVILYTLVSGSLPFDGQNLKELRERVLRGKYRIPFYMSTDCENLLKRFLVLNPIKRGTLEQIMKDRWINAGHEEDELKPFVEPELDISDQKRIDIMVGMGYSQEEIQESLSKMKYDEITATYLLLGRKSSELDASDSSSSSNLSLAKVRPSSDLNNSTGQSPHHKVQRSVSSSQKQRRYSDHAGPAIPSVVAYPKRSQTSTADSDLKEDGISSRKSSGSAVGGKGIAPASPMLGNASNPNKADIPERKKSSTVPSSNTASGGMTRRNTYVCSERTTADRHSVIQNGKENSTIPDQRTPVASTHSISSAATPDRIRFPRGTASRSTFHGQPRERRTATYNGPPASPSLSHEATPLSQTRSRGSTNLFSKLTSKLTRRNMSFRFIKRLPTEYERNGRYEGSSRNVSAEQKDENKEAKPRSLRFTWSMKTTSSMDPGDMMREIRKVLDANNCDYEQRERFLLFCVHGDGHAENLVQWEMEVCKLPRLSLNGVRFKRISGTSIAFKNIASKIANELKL
In short: as §1

RIPK5 = target: T3, RIPK5 (Homo sapiens, UniProt Q6XUX3)
T3 construct: purchased Reaction Biology Corp
T3 sequence (Q6XUX3 1-929): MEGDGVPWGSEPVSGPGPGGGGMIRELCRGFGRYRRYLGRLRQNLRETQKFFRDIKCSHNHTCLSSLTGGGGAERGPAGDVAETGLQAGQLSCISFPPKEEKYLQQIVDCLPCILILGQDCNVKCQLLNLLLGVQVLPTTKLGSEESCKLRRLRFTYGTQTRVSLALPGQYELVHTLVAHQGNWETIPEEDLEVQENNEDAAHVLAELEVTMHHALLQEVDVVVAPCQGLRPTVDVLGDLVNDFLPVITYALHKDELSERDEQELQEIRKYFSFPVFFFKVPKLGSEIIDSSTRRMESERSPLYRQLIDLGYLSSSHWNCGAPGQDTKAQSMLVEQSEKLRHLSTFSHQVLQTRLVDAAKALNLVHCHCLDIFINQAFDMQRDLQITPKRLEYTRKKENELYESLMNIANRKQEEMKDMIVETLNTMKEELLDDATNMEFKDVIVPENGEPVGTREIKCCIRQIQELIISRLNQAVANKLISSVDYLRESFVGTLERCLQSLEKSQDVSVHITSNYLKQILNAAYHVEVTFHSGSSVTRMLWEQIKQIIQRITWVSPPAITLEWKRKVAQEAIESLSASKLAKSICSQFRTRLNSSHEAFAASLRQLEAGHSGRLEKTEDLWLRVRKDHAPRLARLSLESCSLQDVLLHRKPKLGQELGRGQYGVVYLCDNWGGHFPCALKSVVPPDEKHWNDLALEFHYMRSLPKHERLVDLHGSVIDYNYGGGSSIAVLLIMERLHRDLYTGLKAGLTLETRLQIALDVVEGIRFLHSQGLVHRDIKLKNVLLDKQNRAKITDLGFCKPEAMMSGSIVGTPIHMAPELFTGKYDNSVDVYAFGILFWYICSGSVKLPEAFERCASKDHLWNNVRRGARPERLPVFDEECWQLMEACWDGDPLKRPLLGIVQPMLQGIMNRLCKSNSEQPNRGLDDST
In short: as §1

CAMK1d = target: T4, CAMK1d (Homo sapiens, UniProt Q8IU85)
T4 construct: purchased Reaction Biology Corp
T4 sequence (Q8IU85 whole entry): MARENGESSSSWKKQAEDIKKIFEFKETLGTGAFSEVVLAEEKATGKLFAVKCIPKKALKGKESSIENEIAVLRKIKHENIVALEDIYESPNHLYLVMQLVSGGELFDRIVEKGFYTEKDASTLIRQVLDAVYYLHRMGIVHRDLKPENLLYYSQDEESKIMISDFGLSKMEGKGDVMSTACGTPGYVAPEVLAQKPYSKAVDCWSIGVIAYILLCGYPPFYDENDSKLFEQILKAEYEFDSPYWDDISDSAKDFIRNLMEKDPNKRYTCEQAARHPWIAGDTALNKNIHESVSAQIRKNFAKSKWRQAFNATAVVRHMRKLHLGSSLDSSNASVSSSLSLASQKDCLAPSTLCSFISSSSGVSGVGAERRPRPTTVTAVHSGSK
In short: as §1

IKKa/CHUK = target: T5, IKKa/CHUK (Homo sapiens, UniProt O15111)
T5 construct: purchased Reaction Biology Corp
T5 sequence (O15111 1-745): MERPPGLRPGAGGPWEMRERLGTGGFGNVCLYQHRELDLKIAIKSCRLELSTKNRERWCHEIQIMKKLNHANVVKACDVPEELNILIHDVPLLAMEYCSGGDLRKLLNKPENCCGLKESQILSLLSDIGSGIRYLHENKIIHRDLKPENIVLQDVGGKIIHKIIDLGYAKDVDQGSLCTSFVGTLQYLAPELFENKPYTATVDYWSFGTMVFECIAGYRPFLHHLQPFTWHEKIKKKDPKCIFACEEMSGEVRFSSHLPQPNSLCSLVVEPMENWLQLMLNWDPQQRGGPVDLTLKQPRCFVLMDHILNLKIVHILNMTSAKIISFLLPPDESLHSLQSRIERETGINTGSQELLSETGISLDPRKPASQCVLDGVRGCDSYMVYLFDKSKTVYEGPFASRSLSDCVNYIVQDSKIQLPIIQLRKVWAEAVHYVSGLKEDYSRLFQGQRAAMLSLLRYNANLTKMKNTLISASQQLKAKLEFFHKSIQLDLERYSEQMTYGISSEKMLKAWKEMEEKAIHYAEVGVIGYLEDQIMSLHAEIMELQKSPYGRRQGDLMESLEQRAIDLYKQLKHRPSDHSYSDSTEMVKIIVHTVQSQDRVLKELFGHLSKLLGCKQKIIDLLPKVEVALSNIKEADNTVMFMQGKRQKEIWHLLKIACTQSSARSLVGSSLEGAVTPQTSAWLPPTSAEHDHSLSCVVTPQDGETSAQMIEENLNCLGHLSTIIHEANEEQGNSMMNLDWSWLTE
In short: as §1

ABL1 = target: T6, ABL1 (Homo sapiens, UniProt P00519)
T6 construct: purchased Reaction Biology Corp
T6 sequence (P00519 whole entry): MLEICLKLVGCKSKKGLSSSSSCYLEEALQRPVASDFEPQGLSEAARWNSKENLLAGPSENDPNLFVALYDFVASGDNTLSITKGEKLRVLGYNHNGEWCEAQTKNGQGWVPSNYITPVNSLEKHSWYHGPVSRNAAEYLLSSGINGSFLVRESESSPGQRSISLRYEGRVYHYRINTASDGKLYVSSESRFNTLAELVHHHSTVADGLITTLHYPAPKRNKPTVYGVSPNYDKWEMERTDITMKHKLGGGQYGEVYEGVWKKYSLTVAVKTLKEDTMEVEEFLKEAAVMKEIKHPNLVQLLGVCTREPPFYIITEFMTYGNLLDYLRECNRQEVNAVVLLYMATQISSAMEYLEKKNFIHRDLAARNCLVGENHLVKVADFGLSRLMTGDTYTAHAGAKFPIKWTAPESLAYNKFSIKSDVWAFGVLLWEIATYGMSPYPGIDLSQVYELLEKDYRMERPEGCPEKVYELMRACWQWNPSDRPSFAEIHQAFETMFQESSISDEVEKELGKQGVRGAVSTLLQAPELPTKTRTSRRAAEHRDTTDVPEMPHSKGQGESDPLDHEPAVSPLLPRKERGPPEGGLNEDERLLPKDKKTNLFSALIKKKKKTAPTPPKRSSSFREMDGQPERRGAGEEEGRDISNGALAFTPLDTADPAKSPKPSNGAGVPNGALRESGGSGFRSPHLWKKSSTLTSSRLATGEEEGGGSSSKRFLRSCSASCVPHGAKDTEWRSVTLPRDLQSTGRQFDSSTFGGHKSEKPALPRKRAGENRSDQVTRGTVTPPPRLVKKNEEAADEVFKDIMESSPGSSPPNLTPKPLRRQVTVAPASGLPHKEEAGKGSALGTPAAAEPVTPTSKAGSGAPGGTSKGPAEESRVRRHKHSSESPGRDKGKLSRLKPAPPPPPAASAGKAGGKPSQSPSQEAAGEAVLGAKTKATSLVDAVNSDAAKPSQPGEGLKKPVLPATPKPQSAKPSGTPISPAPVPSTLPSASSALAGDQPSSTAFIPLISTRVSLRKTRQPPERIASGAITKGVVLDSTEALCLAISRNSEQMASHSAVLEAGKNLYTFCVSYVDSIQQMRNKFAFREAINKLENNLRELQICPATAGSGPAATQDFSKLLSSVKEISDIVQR
In short: as §1

PKCb1 = target: T7, PKCb1 (Homo sapiens, UniProt P05771)
T7 construct: purchased Reaction Biology Corp
T7 sequence (P05771 whole entry): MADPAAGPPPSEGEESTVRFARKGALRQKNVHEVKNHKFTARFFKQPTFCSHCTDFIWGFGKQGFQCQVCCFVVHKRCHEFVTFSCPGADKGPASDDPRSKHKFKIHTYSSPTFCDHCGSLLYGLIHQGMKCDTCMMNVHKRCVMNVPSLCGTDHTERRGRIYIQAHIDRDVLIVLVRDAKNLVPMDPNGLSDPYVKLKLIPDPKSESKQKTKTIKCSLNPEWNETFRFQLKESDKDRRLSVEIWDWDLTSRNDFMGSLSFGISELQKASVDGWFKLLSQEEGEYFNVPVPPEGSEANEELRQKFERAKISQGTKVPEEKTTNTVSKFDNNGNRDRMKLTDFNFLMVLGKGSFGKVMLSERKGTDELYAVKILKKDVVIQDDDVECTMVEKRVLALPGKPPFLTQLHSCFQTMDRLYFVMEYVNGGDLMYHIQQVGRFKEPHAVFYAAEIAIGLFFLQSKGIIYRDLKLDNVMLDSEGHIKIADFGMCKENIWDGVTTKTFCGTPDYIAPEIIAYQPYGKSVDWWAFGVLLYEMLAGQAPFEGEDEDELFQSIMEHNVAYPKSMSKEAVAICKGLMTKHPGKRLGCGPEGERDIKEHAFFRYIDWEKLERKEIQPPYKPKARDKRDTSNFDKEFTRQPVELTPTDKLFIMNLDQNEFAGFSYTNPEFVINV
In short: as §1

MKK6 = target: T8, MKK6 (Homo sapiens, UniProt P52564)
T8 construct: purchased Reaction Biology Corp
T8 sequence (P52564 1-334): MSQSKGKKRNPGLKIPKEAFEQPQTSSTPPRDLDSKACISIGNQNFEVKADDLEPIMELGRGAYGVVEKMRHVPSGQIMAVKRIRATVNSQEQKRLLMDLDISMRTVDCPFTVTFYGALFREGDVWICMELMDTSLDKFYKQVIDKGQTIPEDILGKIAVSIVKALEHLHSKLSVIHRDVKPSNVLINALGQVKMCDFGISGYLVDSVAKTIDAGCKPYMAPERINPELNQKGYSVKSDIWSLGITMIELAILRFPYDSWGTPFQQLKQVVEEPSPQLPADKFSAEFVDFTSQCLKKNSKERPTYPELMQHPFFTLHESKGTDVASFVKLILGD
In short: as §1

[1] = read-out: % Enzyme Activity (relative to DMSO controls) AVG
[2] = read-out: % Enzyme Activity (relative to DMSO controls) Data 1
[3] = read-out: % Enzyme Activity (relative to DMSO controls) Data 2

T1 sequence (Q04759 whole entry): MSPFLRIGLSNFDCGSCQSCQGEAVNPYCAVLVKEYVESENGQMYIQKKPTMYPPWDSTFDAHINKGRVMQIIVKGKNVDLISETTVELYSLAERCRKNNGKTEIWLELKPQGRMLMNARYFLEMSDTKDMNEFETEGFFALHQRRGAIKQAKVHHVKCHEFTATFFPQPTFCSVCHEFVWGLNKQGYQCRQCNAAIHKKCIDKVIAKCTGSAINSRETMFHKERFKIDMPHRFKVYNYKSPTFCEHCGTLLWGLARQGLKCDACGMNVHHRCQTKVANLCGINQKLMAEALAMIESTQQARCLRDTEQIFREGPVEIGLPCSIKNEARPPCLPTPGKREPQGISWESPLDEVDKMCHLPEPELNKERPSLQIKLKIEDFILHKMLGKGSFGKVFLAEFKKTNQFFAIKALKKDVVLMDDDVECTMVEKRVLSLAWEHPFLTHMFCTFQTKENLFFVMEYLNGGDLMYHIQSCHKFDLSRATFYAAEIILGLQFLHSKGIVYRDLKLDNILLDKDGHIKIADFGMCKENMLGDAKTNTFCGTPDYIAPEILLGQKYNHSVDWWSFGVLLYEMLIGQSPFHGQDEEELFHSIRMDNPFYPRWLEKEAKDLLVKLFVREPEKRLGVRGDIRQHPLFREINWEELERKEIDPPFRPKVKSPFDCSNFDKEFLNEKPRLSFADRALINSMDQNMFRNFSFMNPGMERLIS

Molecule CC(C)(C)C(=O)N1N=CC[C@H]1c1ccccc1 [GSK′963] has a remaining activity at 10 µM (PKCtheta; [1]) of 96.8%, a remaining activity at 10 µM (PKCtheta; [2]) of 97% and a remaining activity at 10 µM (PKCtheta; [3]) of 96.7%. It also gave a remaining activity at 10 µM (MARK3; [1]) of 100%, a remaining activity at 10 µM (MARK3; [2]) of 102% and a remaining activity at 10 µM (MARK3; [3]) of 98.3%. It also gave a remaining activity at 10 µM (RIPK5; [1]) of 101%, a remaining activity at 10 µM (RIPK5; [2]) of 102% and a remaining activity at 10 µM (RIPK5; [3]) of 99.6%. It also gave a remaining activity at 10 µM (CAMK1d; [1]) of 90.2%, a remaining activity at 10 µM (CAMK1d; [2]) of 88.6% and a remaining activity at 10 µM (CAMK1d; [3]) of 91.8%. The remaining activity at 10 µM (IKKa/CHUK; [1]) was 89.5%, the remaining activity at 10 µM (IKKa/CHUK; [2]) was 91.1% and the remaining activity at 10 µM (IKKa/CHUK; [3]) was 88%. For the same molecule, the remaining activity at 10 µM (ABL1; [1]) was 99.3%, the remaining activity at 10 µM (ABL1; [2]) was 102% and the remaining activity at 10 µM (ABL1; [3]) was 96.9%. For the same molecule, the remaining activity at 10 µM (PKCb1; [1]) was 97.8%, the remaining activity at 10 µM (PKCb1; [2]) was 96.7% and the remaining activity at 10 µM (PKCb1; [3]) was 98.9%. It also gave a remaining activity at 10 µM (MKK6; [1]) of 99.7%, a remaining activity at 10 µM (MKK6; [2]) of 101% and a remaining activity at 10 µM (MKK6; [3]) of 98.6%.
